Data taken from patent US7402548B2, “Benzoxazole compounds, process for producing the same and herbicides” (Kyoyu Agri Co., Ltd., priority 2000, dated 2008).

Assays:
Large crabgrass [1] = test: Soil treatment test for upland field; assay type: in vivo, Digitaria adscendens; design: key: 0 = normal development, 5 = all killed; settings: 500 g/ha, 3 weeks, glass house 25° C.
In short: (§1)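 Pre-emergence soil spray, 500 g/ha, WP formulation in water + 0.05% surfactant; alluvial soil; glasshouse, avg 25° C, 3 wk. Score 0 (normal) to 5 (all killed) vs untreated.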

annual bluegrass [2] = test: Soil treatment test for upland field; assay type: in vivo, Poa annua; design: key: 0 = normal development, 5 = all killed; settings: 500 g/ha, 3 weeks, glass house 25° C.
In short: as §1

velvetleaf [3] = test: Soil treatment test for upland field; assay type: in vivo, Abutilon theophrasti; design: key: 0 = normal development, 5 = all killed; settings: 500 g/ha, 3 weeks, glass house 25° C.
In short: as §1

Cyperus serotinus Rottb. = test: Herbicidal test for paddy field; assay type: in vivo; settings: 500 g/ha, dropwise addition to paddy water at 1.5 leaf stage of barnyard grass; glass house 25° C., 3 weeks; rank 0-5 vs non-treated district
In short: (§2)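 Wettable-powder formulations in water with 0.05% surfactant were dripped onto flooded (3 cm) Ube alluvial-soil pots at 500 g/ha, applied at barnyard grass 1.5-leaf stage. Plants were kept in a glasshouse at 25° C. for 3 weeks. Damage was scored 0 (normal) to 5 (all killed) versus untreated plants.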

livid amaranth [4] = test: Foliar spread test for upland field; assay type: in vivo, Amaranthus lividus; design: key: 0 = normal development, 5 = all killed (6 ranks vs. untreated); settings: foliar spray, 500 ppm, 3 weeks, glass house 25° C.
In short: (§3)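 Seeds were sown in volcanic ash soil in Wagner pots and grown about 2 weeks in a glass house at an average 25° C. Wettable-powder formulations diluted to 500 ppm in water with 0.5% surfactant were sprayed uniformly over the plants. After 3 further weeks at 25° C, damage was scored 0 (normal) to 5 (all killed) against untreated plants.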

Large crabgrass [5] = test: Foliar spread test for upland field; assay type: in vivo, Digitaria adscendens; design: key: 0 = normal development, 5 = all killed (6 ranks vs. untreated); settings: foliar spray, 500 ppm, 3 weeks, glass house 25° C.
In short: as §3

bulrush = test: Herbicidal test for paddy field; assay type: in vivo, Scrips juncoides; settings: 500 g/ha, dropwise addition to paddy water at 1.5 leaf stage of barnyard grass; glass house 25° C., 3 weeks; rank 0-5 vs non-treated district
In short: as §2

blackgrass [6] = test: Soil treatment test for upland field; assay type: in vivo, Alopecurus aegualis; design: key: 0 = normal development, 5 = all killed; settings: 500 g/ha, 3 weeks, glass house 25° C.
In short: as §1

morning glory [7] = test: Foliar spread test for upland field; assay type: in vivo, Ipomoea spps.; design: key: 0 = normal development, 5 = all killed (6 ranks vs. untreated); settings: foliar spray, 500 ppm, 3 weeks, glass house 25° C.
In short: as §3

corn [8] = test: Foliar spread test for upland field; assay type: in vivo; design: key: 0 = normal development, 5 = all killed (6 ranks vs. untreated); settings: foliar spray, 500 ppm, 3 weeks, glass house 25° C.
In short: as §3

sugar beat [9] = test: Foliar spread test for upland field; assay type: in vivo; design: key: 0 = normal development, 5 = all killed (6 ranks vs. untreated); settings: foliar spray, 500 ppm, 3 weeks, glass house 25° C.
In short: as §3

cotton [10] = test: Foliar spread test for upland field; assay type: in vivo; design: key: 0 = normal development, 5 = all killed (6 ranks vs. untreated); settings: foliar spray, 500 ppm, 3 weeks, glass house 25° C.
In short: as §3

soybean [11] = test: Foliar spread test for upland field; assay type: in vivo; design: key: 0 = normal development, 5 = all killed (6 ranks vs. untreated); settings: foliar spray, 500 ppm, 3 weeks, glass house 25° C.
In short: as §3

wheat [12] = test: Foliar spread test for upland field; assay type: in vivo; design: key: 0 = normal development, 5 = all killed (6 ranks vs. untreated); settings: foliar spray, 500 ppm, 3 weeks, glass house 25° C.
In short: as §3

solgum [13] = test: Foliar spread test for upland field; assay type: in vivo; design: key: 0 = normal development, 5 = all killed (6 ranks vs. untreated); settings: foliar spray, 500 ppm, 3 weeks, glass house 25° C.
In short: as §3

green foxtail [14] = test: Foliar spread test for upland field; assay type: in vivo, Setaria viridis; design: key: 0 = normal development, 5 = all killed (6 ranks vs. untreated); settings: foliar spray, 500 ppm, 3 weeks, glass house 25° C.
In short: as §3

livid amaranth [15] = test: Soil treatment test for upland field; assay type: in vivo, Amaranthus lividus; design: key: 0 = normal development, 5 = all killed; settings: 500 g/ha, 3 weeks, glass house 25° C.
In short: as §1

cotton [16] = test: Soil treatment test for upland field; assay type: in vivo; settings: 500 g/ha, 3 weeks, glass house 25° C.
Experimental: The herbicidal effects are evaluated according to the following 6 ranks as compared with non-treated district. (0: normal development, 1: Less damaged, 2: Slightly damaged, 3: Moderately damaged, 4: Severely damaged, 5: All killed). Incidentally, “-” in the column means not investigated.
Wagner pots, each having an area of 1/5000 are, were packed with Ube soil (alluvial soil), and then each seed of corn, soybean, cotton, wheat, solgum, sugar beat, Large crabgrass, barnyard grass, green foxtail, blackgrass, annual bluegrass, common lambsquarters, livid amaranth, velvetleaf, morning glory, common Cocklebur (Xanthium strumarium) and sicklepod (Cassia obtusifolia) were planted and covered with soil.
Each wettable powder of the desired compounds (I) shown in Tables 1 to 21, 24, 25, 28 and 29 prepared in accordance with Example 2 was diluted with water containing a surfactant (0.05%) and uniformly sprayed on the surface of each soil so that an effective concentration of the compound (I) in each herbicide became 500 g/ha.
These plants were controlled in a glass house at an average temperature of 25° C. for 3 weeks, and then herbicidal effects thereof were investigated.
The herbicidal effects were evaluated according to the evaluation method described in the above (1).

green foxtail [17] = test: Soil treatment test for upland field; assay type: in vivo, Setaria viridis; design: key: 0 = normal development, 5 = all killed; settings: 500 g/ha, 3 weeks, glass house 25° C.
In short: as §1

morning glory [18] = test: Soil treatment test for upland field; assay type: in vivo, Ipomoea spps.; design: key: 0 = normal development, 5 = all killed; settings: 500 g/ha, 3 weeks, glass house 25° C.
In short: as §1

common lambsquarters [19] = test: Foliar spread test for upland field; assay type: in vivo, Chenopodium album; design: key: 0 = normal development, 5 = all killed (6 ranks vs. untreated); settings: foliar spray, 500 ppm, 3 weeks, glass house 25° C.
In short: as §3

common lambsquarters [20] = test: Soil treatment test for upland field; assay type: in vivo, Chenopodium album; design: key: 0 = normal development, 5 = all killed; settings: 500 g/ha, 3 weeks, glass house 25° C.
In short: as §1

annual bluegrass [21] = test: Foliar spread test for upland field; assay type: in vivo, Poa annua; design: key: 0 = normal development, 5 = all killed (6 ranks vs. untreated); settings: foliar spray, 500 ppm, 3 weeks, glass house 25° C.
In short: as §3

barnyard grass [22] = test: Soil treatment test for upland field; assay type: in vivo, Eschinochloa crusgalli; design: key: 0 = normal development, 5 = all killed; settings: 500 g/ha, 3 weeks, glass house 25° C.
In short: as §1

barnyard grass [23] = test: Herbicidal test for paddy field; assay type: in vivo, Eschinochloa crusgalli; settings: 500 g/ha, dropwise addition to paddy water at 1.5 leaf stage of barnyard grass; glass house 25° C., 3 weeks; rank 0-5 vs non-treated district
In short: as §2

corn [24] = test: Soil treatment test for upland field; assay type: in vivo; design: key: 0 = normal development, 5 = all killed; settings: 500 g/ha, 3 weeks, glass house 25° C.
In short: as §1

sugar beat [25] = test: Soil treatment test for upland field; assay type: in vivo; design: key: 0 = normal development, 5 = all killed; settings: 500 g/ha, 3 weeks, glass house 25° C.
In short: as §1

soybean [26] = test: Soil treatment test for upland field; assay type: in vivo; design: key: 0 = normal development, 5 = all killed; settings: 500 g/ha, 3 weeks, glass house 25° C.
In short: as §1

wheat [27] = test: Soil treatment test for upland field; assay type: in vivo; design: key: 0 = normal development, 5 = all killed; settings: 500 g/ha, 3 weeks, glass house 25° C.
In short: as §1

solgum [28] = test: Soil treatment test for upland field; assay type: in vivo; design: key: 0 = normal development, 5 = all killed; settings: 500 g/ha, 3 weeks, glass house 25° C.
In short: as §1

velvetleaf [29] = test: Foliar spread test for upland field; assay type: in vivo, Abutilon theophrasti; design: key: 0 = normal development, 5 = all killed (6 ranks vs. untreated); settings: foliar spray, 500 ppm, 3 weeks, glass house 25° C.
In short: as §3

blackgrass [30] = test: Foliar spread test for upland field; assay type: in vivo, Alopecurus aegualis; design: key: 0 = normal development, 5 = all killed (6 ranks vs. untreated); settings: foliar spray, 500 ppm, 3 weeks, glass house 25° C.
In short: as §3

barnyardgrjass = test: Foliar spread test for upland field; assay type: in vivo, Eschinochloa crusgalli; design: key: 0 = normal development, 5 = all killed (6 ranks vs. untreated); settings: foliar spray, 500 ppm, 3 weeks, glass house 25° C.
In short: as §3

For CC/C(=C\c1ccc(F)c(C(F)(F)F)c1)c1nc2cc(Cl)ccc2o1 [I-c-54, (E)-2-(5-chlorobenzoxazol-2-yl)-1-(4-fluoro-3-trifluoromethylphenyl)butene], the “Effects Large crabgrass” value (Large crabgrass [1]) was 5, the “Effects Annual bluegrass” value (annual bluegrass [2]) was 5 and the “Effects Velvetleaf” value (velvetleaf [3]) was 5. The “Effects Cyperus serotinus Rottb.” value (Cyperus serotinus Rottb.) was 3, the “Effects Livid amaranth” value (livid amaranth [4]) was 5 and the “Effects Large crabgrass” value (Large crabgrass [5]) was 4. For the same molecule, the “Effects Bulrush” value (bulrush) was 3, the “Effects Blackgrass” value (blackgrass [6]) was 5 and the “Effects Morning glory” value (morning glory [7]) was 3. For the same molecule, the “Effects Corn” value (corn [8]) was 3, the “Effects Sugar beat” value (sugar beat [9]) was 5 and the “Effects Sotton” value (cotton [10]) was 3. The “Effects Soybean” value (soybean [11]) was 4, the “Effects Wheat” value (wheat [12]) was 2 and the “Effects Solgum” value (solgum [13]) was 3. The “Effects Green foxtail” value (green foxtail [14]) was 4, the “Effects Livid amaranth” value (livid amaranth [15]) was 5 and the “Effects Sotton” value (cotton [16]) was 3. For the same molecule, the “Effects Green foxtail” value (green foxtail [17]) was 5, the “Effects Morning glory” value (morning glory [18]) was 5 and the “Effects Common lambsquarters” value (common lambsquarters [19]) was 5. The “Effects Common lambsquarters” value (common lambsquarters [20]) was 5, the “Effects Annual bluegrass” value (annual bluegrass [21]) was 4 and the “Effects Barnyardgrass” value (barnyard grass [22]) was 5. The “Effects Barnyardgrass” value (barnyard grass [23]) was 5, the “Effects Corn” value (corn [24]) was 1 and the “Effects Sugar beat” value (sugar beat [25]) was 5. The “Effects Soybean” value (soybean [26]) was 5, the “Effects Wheat” value (wheat [27]) was 1 and the “Effects Solgum” value (solgum [28]) was 2. The “Effects Velvetleaf” value (velvetleaf [29]) was 3, the “Effects Blackgrass” value (blackgrass [30]) was 4 and the “Effects Barnyardgrass” value (barnyardgrjass) was 2.

CCC(O)(Cc1ccc(F)c(C(F)(F)F)c1)c1nc2cc(Cl)ccc2o1 (stereo not drawn) [I-d-11, 1-(5-chlorobenzoxazol-2-yl)-1-(4-fluoro-3-trifluoromethylbenzyl)propanol] showed a melting point of 90 to 93 °C.

For CCC(F)(Cc1ccc(F)c(C(F)(F)F)c1)c1nc2cc(Cl)ccc2o1 (stereo not drawn) [I-d-13, 1-(5-chlorobenzoxazol-2-yl)-1-(4-fluoro-3-trifluoromethylbenzyl)propyl fluoride], the “Effects Large crabgrass” value (Large crabgrass [1]) was 5, the “Effects Annual bluegrass” value (annual bluegrass [2]) was 5 and the “Effects Velvetleaf” value (velvetleaf [3]) was 5. For the same molecule, the “Effects Livid amaranth” value (livid amaranth [4]) was 5, the “Effects Large crabgrass” value (Large crabgrass [5]) was 2 and the “Effects Blackgrass” value (blackgrass [6]) was 4. For the same molecule, the “Effects Morning glory” value (morning glory [7]) was 5, the “Effects Corn” value (corn [8]) was 2 and the “Effects Sugar beat” value (sugar beat [9]) was 5. For the same molecule, the “Effects Sotton” value (cotton [10]) was 5, the “Effects Soybean” value (soybean [11]) was 5 and the “Effects Wheat” value (wheat [12]) was 1. The “Effects Solgum” value (solgum [13]) was 1, the “Effects Green foxtail” value (green foxtail [14]) was 2 and the “Effects Livid amaranth” value (livid amaranth [15]) was 5. For the same molecule, the “Effects Sotton” value (cotton [16]) was 0, the “Effects Green foxtail” value (green foxtail [17]) was 5 and the “Effects Morning glory” value (morning glory [18]) was 1. For the same molecule, the “Effects Common lambsquarters” value (common lambsquarters [19]) was 5, the “Effects Common lambsquarters” value (common lambsquarters [20]) was 5 and the “Effects Annual bluegrass” value (annual bluegrass [21]) was 1. The “Effects Barnyardgrass” value (barnyard grass [22]) was 2, the “Effects Corn” value (corn [24]) was 0 and the “Effects Sugar beat” value (sugar beat [25]) was 5. For the same molecule, the “Effects Wheat” value (wheat [27]) was 0, the “Effects Solgum” value (solgum [28]) was 0 and the “Effects Velvetleaf” value (velvetleaf [29]) was 4. The “Effects Blackgrass” value (blackgrass [30]) was 1 and the “Effects Barnyardgrass” value (barnyardgrjass) was 1.
